Source: patent publication US6069254A, “Carboxamide derivatives of piperidine for the treatment of thrombosis disorders” (Ortho Pharmaceutical Corp., priority 1997, dated 2000)
Structures can show the parent of a compound that is named as a salt. Where two headings read alike, the source gives them in different places.

What was measured:
GPIIb/IIIa [1] = molecular target: T1, GPIIb/IIIa (Homo sapiens, UniProt P05106+P08514); assay: In Vitro Solid Phase Purified Glycoprotein IIb/IIIa Binding Assay (fibrinogen binding)
Procedure: In Vitro Solid Phase Purified Glycoprotein IIB/IIIA Binding Assay
The plate is covered and incubated overnight at 4° C. The GPIIb/IIIa solution is discarded and 150 μl of 5% BSA is added and incubated at RT for 1-3 h. The plate is washed extensively with modified Tyrodes buffer. Biotinylated fibrinogen (25 μl/well) at 2×final concentration is added to the wells that contain the test compounds (25 μl/well). The plate is covered and incubated at RT for 2-4 h. Twenty minutes prior to incubation completion, one drop of Reagent A (Vecta Stain ABC Horse Radish Peroxidase kit, Vector Laboratories, Inc.) and one drop Reagent B are added with mixing to 5 mL modified Tyrodes buffer mix and let stand. The ligand solution is discarded and the plate washed (5×200 μl/well) with modified Tyrodes buffer. Vecta Stain HRP-Biotin-Avidin reagent (50 μl/well, as prepared above) is added and incubated at RT for 15 min. The Vecta Stain solution is discarded and the wells washed ([…]) with modified Tyrodes buffer. Developing buffer (10 mL of 50 mM citrate/phosphate buffer @ pH 5.3, 6 mg Q-phenylenediamine, 6 μl 30% H2 O2; 50 μl/well) is added and incubated at RT for 3-5 min, and then 2N H2 SO4 (50 μl/well) is added. The absorbance is read at 490 nm.

[2] = tested on: gel-filtered platelets (thrombin-induced aggregation); assay: In Vitro Inhibition of Thrombin-Induced Gel-Filtered Platelet Aggregation Assay; type: cell-based; conditions: Homo sapiens; for inhibition at 50 µM: read-out: Platelet Aggregation % Inh. (50 μM); for IC50: read-out: Platelet Aggregation IC50
Procedure: In Vitro Inhibition of Thrombin-Induced Gel-Filtered Platelet Aggregation Assay
The percentage of platelet aggregation is calculated as an increase in light transmission of compound-treated platelet concentrate vs. control-treated platelet concentrate. Human blood is obtained from drug free, normal donors into tubes containing 0.13M sodium citrate. Platelet rich plasma (PRP) is collected by centrifugation of whole blood at 200×g for 10 min at 25° C. The PRP (5 mL) is gel filtered through Sepharose 2B (bed volume 50 mL), and the platelet count is adjusted to 2×10^7 platelets per sample. The following constituents are added to a siliconized cuvette: concentrated platelet filtrate and Tyrode's buffer (0.14M NaCl, 0.0027M KCl, 0.012M NaHCO3,0.76 mM Na2 HPO4, 0.0055M glucose, 2 mg/mL BSA and 5.0 mM HEPES @ pH 7.4) in an amount equal to 350 μl, 50 μl of 20 mM calcium and 50 μl of the test compound. Aggregation is monitored in a BIODATA aggregometer for the 3 min following the addition of agonist (thrombin 50 μl of 1 unit/mL).

GPIIb/IIIa [3] = molecular target: T1, GPIIb/IIIa; conditions: background statement; cited from earlier work
[4] = tested on: collagen or ADP-induced ex vivo platelet aggregation; assay: Ex Vivo Dog Study: ex vivo platelet aggregation; type: in vivo
Procedure: Adult mongrel dogs (8-13 kg) were anesthetized with sodium pentobarbital ([…], i.v.) and artificially respired. Arterial blood pressure and heart rate were measured using a Millar catheter-tip pressure transducer inserted in a femoral artery Another Millar transducer was placed in the left ventricle (LV) via a carotid artery to measure LV end diastolic pressure and indices of myocardial contractility. A lead electrocardiogram was recorded from limb electrodes. Catheters were placed in a femoral artery and vein to sample blood and infuse drugs, respectively. Responses were continuously monitored using a Modular Instruments data aquisition system.
Separate blood samples (1.5 ml) were withdrawn in EDTA to determine hematocrit and cell counts (platelets, RBC's and white cells). Template bleeding times were obtained from the buccal surface using a symplate incision devise and Whatman filter paper.
Aggregation of PRP was performed using a BioData aggregometer. Aggregation of whole blood used a Chronolog impedance aggregometer. PT and APTT were determined on either a BioData or ACL 3000+ coagulation analyser. Cells were counted with a Sysmex K-1000.
Compounds were solubilized in a small volume of dimethylformamide (DMF) and diluted with saline to a final concentration of 10% DMF. Compounds were administered by the intravenous route with a Harvard infusion pump. […] Data were obtained after each dose and in 30 min intervals following the end of drug administration. Oral doses were administered as aqueous solutions via syringe.

thrombus formation = assay: canine arteriovenous shunt model of thrombosis; type: in vivo; conditions: iv infusion
[5] = tested on: platelets (thrombin-induced platelet aggregation); conditions: L. Alig, J. Med. Chem. 1992, 35, 4393; read-out: IC50 against in vitro thrombin-induced platelet aggregation; cited from earlier work
[6] = isolated GPIIb/IIIa, biotinylated fibrinogen, read-out: Fibrinogen Binding IC50
[7] = 50 μM, thrombin-induced aggregation of gel-filtered platelets
[8] = thrombin-induced aggregation of gel-filtered platelets

| Molecule | IC50 (GPIIb/IIIa [1]; [6]) [nM] | inhibition at 50 µM [2, 7] [%] | also measured |
| --- | --- | --- | --- |
| O=C(O)C[C@H](NC(=O)[C@@H]1CCCN(C(=O)CCC2CCNCC2)C1)c1cncc(Br)c1 [Compound 32, N-3-(4-Piperidinepropionyl)-R-(-)nipecotyl-[(S)-3-amino-3-(5-bromo-3-pyridyl)]propionic acid.2HCl] | 0.4 | – | – |
| O=C(Nc1ccc2ccccc2c1)N[C@@H](CNC(=O)[C@@H]1CCCN(C(=O)CCC2CCNCC2)C1)C(=O)O [Compound 28, N-3-(4-Piperidinepropionyl)-R-(-)nipecotyl-[(S)-2-(2-naphthylamino)carbonylamino-3-amino]propionic acid.HCl] | 0.2 | 100 | – |
| O=C(O)C[C@H](NC(=O)C1CCCN(CCCC2CCNCC2)C1)c1ccc2c(c1)OCO2 (stereo partly drawn) [Compound 20, N-3-(4-Piperidinepropyl)-nipecotyl-[(S)-3-amino-3-(3,4-methylenedioxyphenyl)]propionic acid.2TFA] | 0.7 | – | – |
| O=C(NC[C@@H]1NC(=O)N(Cc2ccccc2)C1=O)[C@@H]1CCCN(C(=O)CCC2CCNCC2)C1 [Compound 29, N-3-(4-Piperidinepropionyl)-R-(-)nipecotyl-aminomethyl-5-(S)-(3-N-benzyl)imidazoline-2,4-dione.HCl] | 68 | 100 | – |
| Cc1ccc([C@H](CC(=O)O)NC(=O)[C@@H]2CCCN(C(=O)CCC3CCNCC3)C2)cn1 [Compound 31, N-3-(4-Piperidinepropionyl)-R-(-)nipecotyl-[(S)-3-amino-3-(6-methyl-3-pyridyl)]propionic acid.2HCl] | 0.3 | 100 | – |
| O=C(NC[C@H](NS(=O)(=O)Cc1ccccc1)C(=O)O)[C@@H]1CCCN(C(=O)CCC2CCNCC2)C1 [Compound 25, N-3-(4-Piperidinepropionyl)-R-(-)nipecotyl-[(S)-2-benzylsulfonylamino-3-amino]propionic acid.HCl] | 0.3 | – | IC50 [2, 8]: 7 nM |
| HHLGGAKQAGDV [γ-chain peptide region of fibrinogen, γ400-411] | – | – | inhibition of fibrinogen binding to GPIIb/IIIa (GPIIb/IIIa [3]): shown to inhibit fibrinogen binding to GPIIb/IIIa |
| NCCCCCC(=O)N1CCCC(C(=O)NC(CC(=O)O)c2cccnc2)C1 (stereo not drawn) [Compound 10, N-(6-Aminocaproyl)-nipecotyl-3-amino-3-(3-pyridyl)propionic acid.3TFA] | – | 85 | IC50 (GPIIb/IIIa [1]): 19 nM; IC50 [2, 8]: 1600 nM |
| O=C(N[C@@H](CNC(=O)[C@@H]1CCCN(C(=O)CCC2CCNCC2)C1)C(=O)O)OCc1cccc(Cl)c1 [Compound 24, N-3-(4-Piperidinepropionyl)-R-(-)nipecotyl-[(S)-2-(3-chlorobenzyloxy)carbonylamino-3-amino]propionic acid.HCl] | – | 100 | – |
| O=C(O)C(O)CNC(=O)[C@@H]1CCCN(C(=O)CCC2CCNCC2)C1 (single isomer, unassigned) [Compound 11, N-3-(4-Piperidinepropionyl)-R-(-)-nipecotyl-(3-amino-2-hydroxy) propionic acid.TFA] | 4 | – | – |
| O=C(NCCc1ccccc1)N[C@@H](CNC(=O)[C@@H]1CCCN(C(=O)CCC2CCNCC2)C1)C(=O)O [Compound 30, N-3-(4-Piperidinepropionyl)-R-(-)nipecotyl-[(S)-2-(2-phenethylamino)carbonylamino-3-amino]propionic acid.HCO2 H] | 0.8 | 100 | – |
| O=C(N[C@@H](CNC(=O)[C@@H]1CCCN(C(=O)CCC2CCNCC2)C1)C(=O)O)OCc1ccccc1 [Compound 23, N-3-(4-Piperidinepropionyl)-R-(-)nipecotyl-[(S)-2-benzyloxycarbonylamino-3-amino]propionic acid.HCl] | 0.3 | – | – |
| O=C(O)C[C@H](NC(=O)[C@@H]1CCCN(C(=O)CCC2CCNCC2)C1)c1cccnc1 [Compound 21, N-3-(4-Piperidinepropionyl)-R-(-)-nipecotyl-[(S)-3-amino-3-(3-pyridyl)]propionic acid.2TFA] | 0.5 | 100 | IC50 [2, 8]: 60 nM |
| O=C(O)C[C@H](NC(=O)[C@@H]1CCCN(C(=O)CCC2CCNCC2)C1)c1ccc2c(c1)OCO2 [Compound 16, N-3-(4-Piperidinepropionyl)-R-(-)-nipecotyl-[(S)-3-amino-3-(3,4-methylenedioxyphenyl)]propionic acid.HCl] | 0.5 | – | inhibition at 50 µM (GPIIb/IIIa [1]; read-out: Fibrinogen Binding % Inh. (50 μM)): 100%; inhibition at 50 µM [2]: 94%; IC50 [2]: 28 nM; Duration of >50% inhibition of collagen or ADP induced ex vivo platelet aggregation ([4]; intravenous, 0.1 mpk): 60 min; Duration of >50% inhibition of collagen or ADP induced ex vivo platelet aggregation ([4]; oral, 1 mpk): 60 min; Duration of >50% inhibition of collagen or ADP induced ex vivo platelet aggregation ([4]; oral, 3 mpk): > 180 min; thrombus weight vs. vehicle control (thrombus formation; 10 μg/kg/min cumulative dose): 75%; thrombus weight vs. vehicle control (thrombus formation; 30 μg/kg/min cumulative dose): 37%; thrombus weight vs. vehicle control (thrombus formation; 100 μg/kg/min cumulative dose): 12%; efficacy in canine arteriovenous shunt model of thrombosis (thrombus formation): have shown efficacy in a canine arteriovenous shunt model of thrombosis in a dose-dependent fashion |
| N=CN1CCC(CCC(=O)N2CCC[C@@H](C(=O)N[C@@H](CC(=O)O)c3cccnc3)C2)CC1 [Compound 33, N-3-(4-Formamidinopiperidinepropionyl)-R-(-)nipecotyl-[(S)-3-amino-3-(3-pyridyl)]propionic acid.2HCl] | 0.7 | 100 | IC50 [2, 8]: 300 nM |
| COc1cccc(NC(=O)N[C@@H](CNC(=O)[C@@H]2CCCN(C(=O)CCC3CCNCC3)C2)C(=O)O)c1 [Compound 22, N-3-(4-Piperidinepropionyl)-R-(-)nipecotyl-[(S)-2-(3-methoxyanilino)carbonylamino-3-amino]propionic acid] | 0.7 | – | – |
| O=C(O)C[C@H](NC(=O)[C@@H]1CCCN(C(=O)N2CCC(C3CCNCC3)CC2)C1)c1cccnc1 [Compound 27, N-[(4,4'-Bipiperidin-1-yl-)carbonyl]-R-(-)-nipecotyl-[(S)-3-amino-3-(3-pyridyl)]propionic acid.3HCl] | 0.6 | 100 | – |
| O=C(O)C[C@H](NC(=O)[C@@H]1CCCN(C(=O)CCC2CCNCC2)C1)c1cnc2ccccc2c1 [Compound 18, N-3-(4-Piperidinepropionyl)-R-(-)-nipecotyl-[(S)-3-amino-3-(3-quinolinyl)]propionic acid.2HCl] | 0.2 | 100 | efficacy in canine arteriovenous shunt model of thrombosis (thrombus formation): have shown efficacy in a canine arteriovenous shunt model of thrombosis in a dose-dependent fashion |
| Arg-Gly-Asp [Arg-Gly-Asp (RGD)] | – | – | inhibition of fibrinogen binding to GPIIb/IIIa (GPIIb/IIIa [3]): shown to inhibit fibrinogen binding to GPIIb/IIIa |
| COc1cc(NC(=O)N[C@@H](CNC(=O)[C@@H]2CCCN(C(=O)CCC3CCNCC3)C2)C(=O)O)cc(OC)c1 [Compound 26, N-3-(4-Piperidinepropionyl)-R-(-)nipecotyl-[(S)-2-(3,5-dimethoxyanilino)carbonylamino-3-amino]propionic acid.HCl] | 0.3 | – | – |
| CN(CC(=O)c1ccc(OCC(=O)O)c(OCC(=O)O)c1)C(=O)c1ccc(C(=N)N)cc1 [Ro-438857] | – | – | IC50 [5]: 94 nM |
